Results reported in patent US6737383B1, “Herbicidal oxadiazolidines” (priority 1999, dated 2004).

Columns and labels:
[1] = test system: giant foxtail; test: Test B pre/postemergence giant foxtail; type: in vivo, Setaria faberii
Outline: (§1)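 Response is a visual 0-to-10 score relative to untreated plants, where 0 means no effect and 10 means complete control, taken twelve to sixteen days after application. Treatments went onto soil at planting and onto foliage of 1- to 4-leaf plants, using a surfactant-containing non-phytotoxic solvent.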

[2] = test system: purple nutsedge; test: Test B pre/postemergence purple nutsedge; type: in vivo, Cyperus rotundus
Outline: as §1

[3] = test system: wild oat; test: Test B pre/postemergence wild oat; type: in vivo, Avena fatua
Outline: as §1

[4] = test system: blackgrass; test: Test B pre/postemergence blackgrass; type: in vivo, Alopecurus myosuroides
Outline: as §1

[5] = test system: pigweed; test: Test B pre/postemergence pigweed; type: in vivo, Amaranthus retroflexus
Outline: as §1

[6] = test system: soybean; test: Test B pre/postemergence soybean; type: in vivo, Glycine max
Outline: as §1

[7] = test system: corn; test: Test B pre/postemergence corn; type: in vivo, Zea mays
Outline: as §1

[8] = test system: morningglory; test: Test B pre/postemergence morningglory; type: in vivo, Ipomoea hederacea
Outline: as §1

[9] = test system: surinam grass; test: Test B pre/postemergence surinam grass; type: in vivo, Brachiaria decumbens
Outline: as §1

[10] = test system: wheat; test: Test B pre/postemergence wheat; type: in vivo, Triticum aestivum
Outline: as §1

[11] = test system: cocklebur; test: Test B pre/postemergence cocklebur; type: in vivo, Xanthium strumarium
Outline: as §1

[12] = test system: sugar beet; test: Test B pre/postemergence sugar beet; type: in vivo, Beta vulgaris
Outline: as §1

[13] = test system: bedstraw; test: Test B pre/postemergence bedstraw; type: in vivo, Galium aparine
Outline: as §1

[14] = test system: velvetleaf; test: Test B pre/postemergence velvetleaf; type: in vivo, Abutilon theophrasti
Outline: as §1

[15] = test system: crabgrass; test: Test B pre/postemergence crabgrass; type: in vivo, Digitaria sanguinalis
Outline: as §1

[16] = test system: rape; test: Test B pre/postemergence rape; type: in vivo, Brassica napus
Outline: as §1

[17] = Postemergence, Rate 125 g/ha, scale of 0 to 10 where 0 is no effect and 10 is complete control
[18] = Preemergence, Rate 62 g/ha, scale of 0 to 10 where 0 is no effect and 10 is complete control
[19] = Preemergence, Rate 125 g/ha, 0 is no effect, 10 is complete control
[20] = Preemergence, Rate 250 g/ha, scale 0 to 10, 0 is no effect, 10 is complete control
[21] = Preemergence, Rate 500 g/ha, scale 0 to 10 (0 no effect, 10 complete control)
[22] = Rate 62 g/ha, Postemergence, scale of 0 to 10 where 0 is no effect and 10 is complete control
[23] = Rate 250 g/ha, Postemergence, scale 0 to 10, 0 is no effect, 10 is complete control
[24] = Rate 500 g/ha, Postemergence, scale 0 to 10
[25] = Preemergence, Rate 125 g/ha, scale of 0 to 10 where 0 is no effect and 10 is complete control
[26] = Preemergence, Rate 250 g/ha, scale 0 to 10 (0 no effect, 10 complete control)
[27] = Preemergence, Rate 500 g/ha, scale of 0 to 10 where 0 is no effect and 10 is complete control

## CC(C)N(C(=O)n1oc(=O)n([C@@H](C)c2ccccc2)c1=O)c1ccccc1 [Compound 168]
[1]; [17]
  Giant foxtail plant response rating: 0
[1]; [18]
  Giant foxtail plant response rating: 6
[1]; [19]
  Giant foxtail plant response rating (0 to 10 scale): 8
[1]; [20]
  Giant foxtail plant response rating: 10
[1]; [21]
  Giant foxtail plant response rating: 10
[1]; [22]
  Giant foxtail plant response rating: 0
[1]; [23]
  Plant response rating, Giant foxtail: 1
[1]; [24]
  Giant foxtail plant response rating: 3
[2]; [17]
  Nutsedge plant response rating: 0
[2]; [18]
  Nutsedge plant response rating: 0
[2]; [19]
  Nutsedge plant response rating (0 to 10 scale): 0
[2]; [20]
  Nutsedge plant response rating: 0
[2]; [21]
  Nutsedge plant response rating: 0
[2]; [22]
  Nutsedge plant response rating: 0
[2]; [23]
  Plant response rating, Nutsedge: 0
[2]; [24]
  Nutsedge plant response rating: 0
[3]; [18]
  Wild oats plant response rating: 0
[3]; [19]
  Wild oats plant response rating (0 to 10 scale): 0
[3]; [20]
  Wild oats plant response rating: 1
[3]; [21]
  Wild oats plant response rating: 3
[3]; [23]
  Plant response rating, Wild oats: 0
[3]; [24]
  Wild oats plant response rating: 0
[4]; [17]
  Blackgrass plant response rating: 0
[4]; [18]
  Blackgrass plant response rating: 0
[4]; [19]
  Blackgrass plant response rating (0 to 10 scale): 1
[4]; [20]
  Blackgrass plant response rating: 2
[4]; [21]
  Blackgrass plant response rating: 2
[4]; [22]
  Blackgrass plant response rating: 0
[4]; [23]
  Plant response rating, Blackgrass: 2
[4]; [24]
  Blackgrass plant response rating: 7
[5]; [17]
  Redroot pigweed plant response rating: 0
[5]; [18]
  Redroot pigweed plant response rating: 0
[5]; [19]
  Redroot pigweed plant response rating (0 to 10 scale): 0
[5]; [20]
  Redroot pigweed plant response rating: 0
[5]; [21]
  Redroot pigweed plant response rating: 0
[5]; [22]
  Redroot pigweed plant response rating: 0
[5]; [23]
  Plant response rating, Redroot pigweed: 0
[5]; [24]
  Redroot pigweed plant response rating: 0
[6]; [17]
  Soybean plant response rating: 1
[6]; [18]
  Soybean plant response rating: 0
[6]; [19]
  Soybean plant response rating (0 to 10 scale): 0
[6]; [20]
  Soybean plant response rating: 0
[6]; [21]
  Soybean plant response rating: 0
[6]; [22]
  Soybean plant response rating: 1
[6]; [23]
  Plant response rating, Soybean: 2
[6]; [24]
  Soybean plant response rating: 2
[7]; [17]
  Corn plant response rating: 0
[7]; [18]
  Corn plant response rating: 0
[7]; [19]
  Corn plant response rating (0 to 10 scale): 0
[7]; [20]
  Corn plant response rating: 0
[7]; [21]
  Corn plant response rating: 0
[7]; [22]
  Corn plant response rating: 0
[7]; [23]
  Plant response rating, Corn: 0
[7]; [24]
  Corn plant response rating: 0
[8]; [17]
  Morningglory plant response rating: 8
[8]; [18]
  Morningglory plant response rating: 0
[8]; [19]
  Morningglory plant response rating (0 to 10 scale): 0
[8]; [20]
  Morningglory plant response rating: 0
[8]; [21]
  Morningglory plant response rating: 0
[8]; [22]
  Morningglory plant response rating: 7
[8]; [23]
  Plant response rating, Morningglory: 10
[8]; [24]
  Morningglory plant response rating: 10
[9]; [17]
  B. signalgrass plant response rating: 0
[9]; [18]
  B. signalgrass plant response rating: 0
[9]; [19]
  B. signalgrass plant response rating (0 to 10 scale): 2
[9]; [20]
  B. signalgrass plant response rating: 2
[9]; [21]
  B. signalgrass plant response rating: 5
[9]; [22]
  B. signalgrass plant response rating: 0
[9]; [23]
  Plant response rating, B. signalgrass: 0
[9]; Rate 500 g/ha, Postemergence, scale 0 to 10, 0 no effect, 10 complete control
  B. signalgrass plant response rating: 0
[10]; [18]
  Wheat plant response rating: 0
[10]; [19]
  Wheat plant response rating (0 to 10 scale): 0
[10]; [20]
  Wheat plant response rating: 0
[10]; [21]
  Wheat plant response rating: 0
[10]; [23]
  Plant response rating, Wheat: 0
[10]; [24]
  Wheat plant response rating: 0
[11]; [17]
  Cocklebur plant response rating: 0
[11]; [18]
  Cocklebur plant response rating: 0
[11]; [19]
  Cocklebur plant response rating (0 to 10 scale): 0
[11]; [20]
  Cocklebur plant response rating: 0
[11]; [21]
  Cocklebur plant response rating: 0
[11]; [22]
  Cocklebur plant response rating: 0
[11]; [23]
  Plant response rating, Cocklebur: 2
[11]; [24]
  Cocklebur plant response rating: 2
[12]; [17]
  Sugarbeets plant response rating: 0
[12]; [18]
  Sugarbeets plant response rating: 0
[12]; [19]
  Sugarbeets plant response rating (0 to 10 scale): 0
[12]; [20]
  Sugarbeets plant response rating: 4
[12]; [21]
  Sugarbeets plant response rating: 7
[12]; [22]
  Sugarbeets plant response rating: 0
[12]; [23]
  Plant response rating, Sugarbeets: 0
[12]; [24]
  Sugarbeets plant response rating: 0
[13]; [17]
  Bedstraw plant response rating: 3
[13]; [18]
  Bedstraw plant response rating: 0
[13]; [19]
  Bedstraw plant response rating (0 to 10 scale): 0
[13]; [20]
  Bedstraw plant response rating: 0
[13]; [21]
  Bedstraw plant response rating: 0
[13]; [22]
  Bedstraw plant response rating: 3
[13]; [23]
  Plant response rating, Bedstraw: 8
[14]; [18]
  Velvetleaf plant response rating: 0
[14]; [19]
  Velvetleaf plant response rating (0 to 10 scale): 0
[14]; [20]
  Velvetleaf plant response rating: 0
[14]; [21]
  Velvetleaf plant response rating: 6
[14]; [23]
  Plant response rating, Velvetleaf: 1
[14]; [24]
  Velvetleaf plant response rating: 1
[15]; [17]
  Crabgrass plant response rating: 1
[15]; [18]
  Crabgrass plant response rating: 0
[15]; [19]
  Crabgrass plant response rating (0 to 10 scale): 3
[15]; [20]
  Crabgrass plant response rating: 7
[15]; [21]
  Crabgrass plant response rating: 7
[15]; [22]
  Crabgrass plant response rating: 0
[15]; [23]
  Plant response rating, Crabgrass: 2
[15]; [24]
  Crabgrass plant response rating: 9
[16]; [17]
  Rape plant response rating: 0
[16]; [18]
  Rape plant response rating: 0
[16]; [19]
  Rape plant response rating (0 to 10 scale): 0
[16]; [20]
  Rape plant response rating: 0
[16]; [21]
  Rape plant response rating: 0
[16]; [22]
  Rape plant response rating: 0
[16]; [23]
  Plant response rating, Rape: 0
[16]; [24]
  Rape plant response rating: 0

## CCn1ncc(Cn2c(=O)on(C(=O)N(c3ccc(F)cc3)C(C)C)c2=O)c1Cl [Compound 685]
[1]; [18]
  Giant foxtail plant response rating: 9
[1]; [25]
  Plant response rating, Giant foxtail: 9
[2]; [25]
  Plant response rating, Nutsedge: 0
[3]; [18]
  Wild oats plant response rating: 0
[3]; [25]
  Plant response rating, Wild oats: 3
[4]; [18]
  Blackgrass plant response rating: 5
[4]; [25]
  Plant response rating, Blackgrass: 7
[4]; [26]
  Plant response rating, Blackgrass: 10
[4]; [27]
  Plant response rating, Blackgrass: 10
[5]; [18]
  Redroot pigweed plant response rating: 0
[5]; [25]
  Plant response rating, Redroot pigweed: 4
[6]; [18]
  Soybean plant response rating: 0
[6]; [25]
  Plant response rating, Soybean: 0
[7]; [18]
  Corn plant response rating: 0
[7]; [25]
  Plant response rating, Corn: 0
[7]; [26]
  Plant response rating, Corn: 0
[8]; [18]
  Morningglory plant response rating: 0
[8]; [25]
  Plant response rating, Morningglory: 0
[9]; [18]
  B. signalgrass plant response rating: 5
[9]; [25]
  Plant response rating, B. signalgrass: 7
[9]; [26]
  Plant response rating, B. signalgrass: 9
[9]; [27]
  Plant response rating, B. signalgrass: 9
[10]; [18]
  Wheat plant response rating: 0
[10]; [25]
  Plant response rating, Wheat: 0
[11]; [18]
  Cocklebur plant response rating: 0
[11]; [25]
  Plant response rating, Cocklebur: 0
[11]; [26]
  Plant response rating, Cocklebur: 0
[12]; [18]
  Sugarbeets plant response rating: 0
[12]; [25]
  Plant response rating, Sugarbeets: 0
[13]; [25]
  Plant response rating, Bedstraw: 0
[13]; [26]
  Plant response rating, Bedstraw: 0
[13]; [27]
  Plant response rating, Bedstraw: 0
[14]; [18]
  Velvetleaf plant response rating: 0
[14]; [25]
  Plant response rating, Velvetleaf: 0
[15]; [18]
  Crabgrass plant response rating: 9
[15]; [25]
  Plant response rating, Crabgrass: 9
[15]; [26]
  Plant response rating, Crabgrass: 9
[16]; [18]
  Rape plant response rating: 0
[16]; [25]
  Plant response rating, Rape: 0
